pKi: −log10 of the molar value. *1 amine or outer side, *2 acyl side, *3 side chain or, on linkers, in order; H or OH if unused. Where a SMILES comes first, the peptide text is derived from it. Side-chain parts run from the residue outwards. The star is where a group is joined. C18 diacid = O=C(O)CCCCCCCCCCCCCCCCC(=O)*; γGlu = O=C(O)[C@H](CCC(=O)[*:2])N[*:1]; Isovaleryl = CC(C)CC(=O)*; AEEA = NCCOCCOCC(=O)O
How the values were obtained:
[1] = target: T1, Human Neuropeptide Y2 Receptor (Homo sapiens, UniProt P49146); test: Radioligand binding competition assay (RLB); conditions: Table 3; human 125I-PYY (1-36) 0.02 nM, Y2 receptor membranes; read-out: Ki
T1 construct: purchased CHEMICON HTS066M
T1 sequence (P49146 1-381): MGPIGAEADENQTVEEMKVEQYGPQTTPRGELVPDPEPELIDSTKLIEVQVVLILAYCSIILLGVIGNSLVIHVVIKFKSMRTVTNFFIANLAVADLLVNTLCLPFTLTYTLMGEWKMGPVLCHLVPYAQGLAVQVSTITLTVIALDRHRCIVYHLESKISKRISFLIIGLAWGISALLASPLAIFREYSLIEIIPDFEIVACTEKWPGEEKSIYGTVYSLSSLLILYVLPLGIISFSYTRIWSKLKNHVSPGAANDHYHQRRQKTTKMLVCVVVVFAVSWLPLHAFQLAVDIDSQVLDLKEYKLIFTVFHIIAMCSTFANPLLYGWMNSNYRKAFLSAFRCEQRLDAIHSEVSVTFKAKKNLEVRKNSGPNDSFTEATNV
In short: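 Competition binding at commercial human NPY Y2 membrane preparations, 0.5 μg protein per well, 2 h incubation at room temperature. Bound and free ligand were separated on GF/C filters and counted; IC50 was fitted by nonlinear regression.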

normal NMRI mice = test: Effect on acute food intake in normal NMRI mice; type: in vivo; conditions: male NMRI mice, 10 nmol/kg subcutaneously once
In short: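 Male NMRI mice acclimatized in an HM-2 real-time food intake monitoring system, fasted 6 h before dark phase. Single subcutaneous dose of 10 nmol/kg peptide given 1 h before dark; n=7-8. Food intake expressed as % of vehicle group (50 mM phosphate pH7, 5% Mannitol).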

Row | Compound | pKi [1] | Acute Food Intake 24 h [% vehicle] (normal NMRI mice)
1 | CC(C)CC(=O)N[C@@H](C)C(=O)N1CCC[C@H]1C(=O)N[C@@H](CCC(=O)O)C(=O)N[C@@H](CCCCNC(=O)COCCOCCNC(=O)COCCOCCNC(=O)CC[C@H](NC(=O)CCCCCCCCCCCCCCCCC(=O)O)C(=O)O)C(=O)N1CCC[C@H]1C(=O)N[C@@H](CCC(=O)O)C(=O)N[C@@H](CCC(=O)O)C(=O)N[C@@H](CC(=O)O)C(=O)N[C@@H](C)C(=O)N[C@@H](CO)C(=O)N1CCC[C@H]1C(=O)N[C@@H](CCC(=O)O)C(=O)N[C@@H](CCC(=O)O)C(=O)N[C@@H](CC(C)C)C(=O)N[C@@H](CCC(N)=O)C(=O)N[C@@H](CCCCN)C(=O)N[C@@H](Cc1ccc(O)cc1)C(=O)N[C@@H](Cc1ccc(O)cc1)C(=O)N[C@H](C(=O)N[C@H](C(=O)N[C@@H](CC(C)C)C(=O)N[C@@H](CCCNC(=N)N)C(=O)N[C@@H](Cc1c[nH]cn1)C(=O)N[C@@H](Cc1ccc(O)cc1)C(=O)N[C@@H](Cc1ccc(O)cc1)C(=O)N[C@@H](CC(N)=O)C(=O)N[C@@H](Cc1c[nH]c2ccccc12)C(=O)N[C@@H](CC(C)C)C(=O)N[C@H](C(=O)N[C@@H](CCCNC(=N)N)C(=O)N[C@@H](CCC(N)=O)C(=O)N[C@@H](CCCNC(=N)N)C(=O)N[C@@H](Cc1ccc(O)cc1)C(N)=O)[C@@H](C)O)[C@@H](C)O)C(C)C [Compound 132, N{alpha-4}-(3-methylbutanoyl)-N{epsilon-7}-[2-(2-{2-[2-(2-{2-[(4S)-4-carboxy-4-(17-carboxyheptadecanamido)butanamido]ethoxy}ethoxy)acetamido]ethoxy}ethoxy)acetamido]-[4A,7K,9E,18Q,19K,22V,23T,28Y,30W,31L]hPYY (4-36)] | 8.93 | 64
2 | CC(C)CC(=O)N[C@@H](C)C(=O)N1CCC[C@H]1C(=O)N[C@@H](CCC(=O)O)C(=O)N[C@@H](CCCCNC(=O)COCCOCCNC(=O)COCCOCCNC(=O)CC[C@H](NC(=O)CCCCCCCCCCCCCCCCC(=O)O)C(=O)O)C(=O)N1CCC[C@H]1C(=O)N[C@@H](CCC(=O)O)C(=O)N[C@@H](C)C(=O)N[C@@H](CCC(=O)O)C(=O)N[C@@H](C)C(=O)N[C@@H](CO)C(=O)N1CCC[C@H]1C(=O)N[C@@H](CCC(=O)O)C(=O)N[C@@H](CCC(=O)O)C(=O)N[C@@H](CC(C)C)C(=O)N[C@@H](CCC(N)=O)C(=O)N[C@@H](CCCNC(=N)N)C(=O)N[C@@H](Cc1ccc(O)cc1)C(=O)N[C@@H](Cc1ccc(O)cc1)C(=O)N[C@H](C(=O)N[C@@H](CO)C(=O)N[C@@H](CC(C)C)C(=O)N[C@@H](CCCNC(=N)N)C(=O)N[C@@H](Cc1c[nH]cn1)C(=O)N[C@@H](Cc1ccc(O)cc1)C(=O)N[C@@H](Cc1ccc(O)cc1)C(=O)N[C@@H](CC(N)=O)C(=O)N[C@@H](Cc1c[nH]c2ccccc12)C(=O)N[C@@H](CC(C)C)C(=O)N[C@H](C(=O)N[C@@H](CCCNC(=N)N)C(=O)N[C@@H](CCC(N)=O)C(=O)N[C@@H](CCCNC(=N)N)C(=O)N[C@@H](Cc1ccc(O)cc1)C(N)=O)[C@@H](C)O)C(C)C [Compound 151, N{alpha-4}-(3-methylbutanoyl)-N{epsilon-7}-[2-(2-{2-[2-(2-{2-[(4S)-4-carboxy-4-(17-carboxyheptadecanamido)butanamido]ethoxy}ethoxy)acetamido]ethoxy}ethoxy)acetamido]-[4A,7K,9E,10A,11E,18Q,22V,28Y,30W,31L]hPYY (4-36)] | 8.84 | 45

The next lines start with results.

Row | pKi [1] | Compound | Acute Food Intake 24 h [% vehicle] (normal NMRI mice)
3 | 8.64 | CC(C)CC(=O)N[C@@H](C)C(=O)N1CCC[C@H]1C(=O)N[C@@H](CCC(=O)O)C(=O)N[C@@H](CCCCNC(=O)COCCOCCNC(=O)COCCOCCNC(=O)CC[C@H](NC(=O)CCCCCCCCCCCCCCCCC(=O)O)C(=O)O)C(=O)N1CCC[C@H]1C(=O)N[C@@H](CCC(=O)O)C(=O)N[C@@H](CCC(=O)O)C(=O)N[C@@H](CC(=O)O)C(=O)N[C@@H](C)C(=O)N[C@@H](CO)C(=O)N1CCC[C@H]1C(=O)N[C@@H](CCC(=O)O)C(=O)N[C@@H](CCC(=O)O)C(=O)N[C@H](C(=O)N[C@@H](CCC(N)=O)C(=O)N[C@@H](CCCNC(=N)N)C(=O)N[C@@H](Cc1ccc(O)cc1)C(=O)N[C@@H](Cc1ccc(O)cc1)C(=O)N[C@H](C(=O)N[C@@H](CCC(=O)O)C(=O)N[C@@H](CC(C)C)C(=O)N[C@@H](CCCNC(=N)N)C(=O)N[C@@H](Cc1c[nH]cn1)C(=O)N[C@@H](Cc1ccc(O)cc1)C(=O)N[C@@H](Cc1ccc(O)cc1)C(=O)N[C@@H](CC(N)=O)C(=O)N[C@@H](Cc1c[nH]c2ccccc12)C(=O)N[C@@H](CC(C)C)C(=O)N[C@H](C(=O)N[C@@H](CCCNC(=N)N)C(=O)N[C@@H](CCC(N)=O)C(=O)N[C@@H](CCCNC(=N)N)C(=O)N[C@@H](Cc1ccc(O)cc1)C(N)=O)[C@@H](C)O)C(C)C)C(C)C [Compound 133, N{alpha-4}-(3-methylbutanoyl)-N{epsilon-7}-[2-(2-{2-[2-(2-{2-[(4S)-4-carboxy-4-(17-carboxyheptadecanamido)butanamido]ethoxy}ethoxy)acetamido]ethoxy}ethoxy)acetamido]-[4A,7K,9E,17V,18Q,22V,23E,28Y,30W,31L]hPYY (4-36)] | 57
4 | 8.42 | CC(C)CC(=O)N[C@@H](C)C(=O)N1CCC[C@H]1C(=O)N[C@@H](CCC(=O)O)C(=O)N[C@@H](CCCCNC(=O)COCCOCCNC(=O)COCCOCCNC(=O)CC[C@H](NC(=O)CCCCCCCCCCCCCCCCC(=O)O)C(=O)O)C(=O)N1CCC[C@H]1C(=O)N[C@@H](CCC(=O)O)C(=O)N[C@@H](CCC(=O)O)C(=O)N[C@@H](CCC(=O)O)C(=O)N[C@@H](CO)C(=O)N[C@@H](CO)C(=O)N1CCC[C@H]1C(=O)N[C@@H](CCC(=O)O)C(=O)N[C@@H](CCC(=O)O)C(=O)N[C@@H](CC(C)C)C(=O)N[C@@H](CCC(N)=O)C(=O)N[C@@H](CCCNC(=N)N)C(=O)N[C@@H](Cc1ccc(O)cc1)C(=O)N[C@@H](Cc1ccc(O)cc1)C(=O)N[C@H](C(=O)N[C@@H](CO)C(=O)N[C@@H](CC(C)C)C(=O)N[C@@H](CCCNC(=N)N)C(=O)N[C@@H](Cc1c[nH]cn1)C(=O)N[C@@H](Cc1ccc(O)cc1)C(=O)N[C@@H](Cc1ccc(O)cc1)C(=O)N[C@@H](CC(N)=O)C(=O)N[C@@H](Cc1c[nH]c2ccccc12)C(=O)N[C@@H](CC(C)C)C(=O)N[C@H](C(=O)N[C@@H](CCCNC(=N)N)C(=O)N[C@@H](CCC(N)=O)C(=O)N[C@@H](CCCNC(=N)N)C(=O)N[C@@H](Cc1ccc(O)cc1)C(N)=O)[C@@H](C)O)C(C)C [Compound 139, N{alpha-4}-(3-methylbutanoyl)-N{epsilon-7}-[2-(2-{2-[2-(2-{2-[(4S)-4-carboxy-4-(17-carboxyheptadecanamido)butanamido]ethoxy}ethoxy)acetamido]ethoxy}ethoxy)acetamido]-[4A,7K,9E,11E,12S,18Q,22V,28Y,30W,31L]hPYY (4-36)] (Isovaleryl-APEK([AEEA-AEEA-γGlu-C18 diacid])PEEESSPEELQRYYVSLRHYYNWLTRQRY-NH2) | 74
5 | 8.69 | CC(C)CC(=O)N[C@@H](C)C(=O)N1CCC[C@H]1C(=O)N[C@@H](CCC(=O)O)C(=O)N[C@@H](CCCCNC(=O)COCCOCCNC(=O)COCCOCCNC(=O)CC[C@H](NC(=O)CCCCCCCCCCCCCCCCC(=O)O)C(=O)O)C(=O)N1CCC[C@H]1C(=O)N[C@@H](CCC(=O)O)C(=O)N[C@@H](CCC(=O)O)C(=O)N[C@@H](CC(=O)O)C(=O)N[C@@H](C)C(=O)N[C@@H](CCC(=O)O)C(=O)N1CCC[C@H]1C(=O)N[C@@H](CCC(=O)O)C(=O)N[C@@H](CCC(=O)O)C(=O)N[C@@H](CC(C)C)C(=O)N[C@@H](CCC(N)=O)C(=O)N[C@@H](CCCCN)C(=O)N[C@@H](Cc1ccc(O)cc1)C(=O)N[C@@H](Cc1ccc(O)cc1)C(=O)N[C@H](C(=O)N[C@@H](CO)C(=O)N[C@@H](CC(C)C)C(=O)N[C@@H](CCCNC(=N)N)C(=O)N[C@@H](Cc1c[nH]cn1)C(=O)N[C@@H](Cc1ccc(O)cc1)C(=O)N[C@@H](Cc1ccc(O)cc1)C(=O)N[C@@H](CC(N)=O)C(=O)N[C@@H](Cc1c[nH]c2ccccc12)C(=O)N[C@@H](CC(C)C)C(=O)N[C@H](C(=O)N[C@@H](CCCNC(=N)N)C(=O)N[C@@H](CCC(N)=O)C(=O)N[C@@H](CCCNC(=N)N)C(=O)N[C@@H](Cc1ccc(O)cc1)C(N)=O)[C@@H](C)O)C(C)C [Compound 150, N{alpha-4}-(3-methylbutanoyl)-N{epsilon-7}-[2-(2-{2-[2-(2-{2-[(4S)-4-carboxy-4-(17-carboxyheptadecanamido)butanamido]ethoxy}ethoxy)acetamido]ethoxy}ethoxy)acetamido]-[4A,7K,9E,13E,18Q,19K,22V,28Y,30W,31L]hPYY (4-36)] | 67
